The values below come from US20200179428A1, “CYCLIC PHOSPHATE SUBSTITUTED NUCLEOSIDE DERIVATIVES AND METHODS OF USE THEREOF FOR THE TREATMENT OF VIRAL DISEASES” (priority 2016, published 2020).

System in the first data set: not listed separately
The experiment in a line: Cytotoxicity MTS assay (CellTiter 96 Aqueous One Solution) in replicon cells. The class given is cell-based. The settings on record: HCV replicon cells (1b-Con1); EDU; read-out: CC50 (EDU) Range. As for the experimental part:
(§1) To measure cell-based anti-HCV activity of the compounds of the present invention, replicon cells (1b-Con1) are seeded at 5000 cells/well in 96-well plates one day prior to treatment with a compound of the invention. Various concentrations of a test compound of the invention in DMSO are then added to the replicon cells, with the final concentration of DMSO at 0.5% and fetal bovine serum at 10% in the assay media. Cells are harvested three days post-dosing, and the replicon RNA level is determined using real-time RT-PCR (Taqman assay) with GAPDH RNA as endogenous control. EC50 values are calculated from experiments with 10 serial twofold dilutions of the inhibitor in triplicate. To measure cytotoxicity in replicon cells of an inhibitor, an MTS assay is performed according to the manufacturer's protocol for CellTiter 96 Aqueous One Solution Cell Proliferation Assay (Promega, Cat # G3580) three days post dosing on cells treated identically as in replicon activity assays. […] Cytotoxicity in other types of cells may be measured using the same MTS protocol.
The CC50 is the concentration at which the toxic effect on the cells reaches its halfway point. Take `C#C[C@]1(C)[C@@H]2O[P@@](=O)(OCCC(C)C(=O)OC3CCCCC3)OC[C@H]2O[C@H]1n1ccc(=O)[nH]c1=O` (stereo partly shown) [Compound 77A]: the half-maximal cytotoxic concentration (CC50) at 3 days was over 50 µM.

With `C#C[C@@]1(O)[C@@H]2O[P@@](=O)(OCCC(C(=O)OC(C)C)C(=O)OC(C)C)OC[C@H]2O[C@H]1n1ccc(=O)[nH]c1=O` [Compound 59A], the CC50 at 3 days was over 50 µM.

Consider `C#C[C@]1(C)[C@@H]2O[P@](=O)(OCC(C)(C)CC(=O)OC(C)C)OC[C@H]2O[C@H]1n1ccc(=O)[nH]c1=O` [Compound 18B], for which the half-maximal cytotoxic concentration (CC50) at 3 days was over 50 µM.

In the case of `C#C[C@]1(C)[C@@H]2O[P@@](=O)(OCC[C@H](C)C(=O)OC(C)C)OC[C@H]2O[C@H]1n1cnc2c(N)ncnc21` [Compound 72A], the 50% cytotoxic concentration (CC50) at 3 days was over 50 µM.

In the case of `CC(C)OC(=O)C(C)CCOP1(=O)OC[C@H]2O[C@@H](n3cnc4c(N)ncnc43)[C@](C)(Cl)[C@@H]2O1` (stereo partly shown) [Compound 35A], the CC50 at 3 days is over 50 µM.

On to `C#C[C@]1(C)[C@@H]2O[P@@](=O)(OCCC(CC)C(=O)OC(C)C)OC[C@H]2O[C@H]1n1ccc(=O)[nH]c1=O` (stereo partly shown) [Compound 31A], for which the 50% cytotoxic concentration (CC50) at 3 days was over 50 µM.

On to `COC(=O)N[C@@H](CCO[P@@]1(=O)OC[C@H]2O[C@@H](n3ccc(=O)[nH]c3=O)[C@](C)(N)[C@@H]2O1)C(=O)OC(C)C` [Compound 42A], for which the CC50 at 3 days was over 50 µM.

Another data set has as its system replicon cells (1b-Con1). The experiment in a line: Replicon activity assay (replicon RNA level by real-time RT-PCR, Taqman). The format is cell-based. The settings on record: HCV replicon genotype 1b; read-out: EC50 (1b) Range. As for the experimental part:
as §1
(A replicon is a self-replicating genome or part of one, used to study replication in cells.)
Broadly, the EC50 is the midpoint of the concentration-response curve. As for `CC(C)OC(=O)[C@H](C)CCO[P@]1(=O)OC[C@H]2O[C@@H](n3cc(F)c4c(N)ncnc43)[C@](C)(Cl)[C@@H]2O1` [Compound 82B], the 50% effective concentration (EC50) was over 10 µM.

The data set is the same for the next values; noted with them: Hepatitis C virus, HCV replicon genotype 1b; read-out: EC50 (1b) Range.
Take `CCC(CCO[P@@]1(=O)OC[C@H]2O[C@@H](n3ccc(=O)[nH]c3=O)[C@](C)(N)[C@@H]2O1)C(=O)OC1CCCC1` (stereo partly shown) [Compound 25A]: the concentration giving a half-maximal response (EC50) is over 10 µM.

For the molecule `CC(C)OC(=O)[C@H](C)CCOP1(=O)OC[C@@]2(F)O[C@@H](n3ccc(=O)[nH]c3=O)[C@](C)(F)[C@@H]2O1` (stereo partly shown) [Compound 87A], the EC50 was at most 0.25 µM.

On to `CC(=O)O[C@H](CO[P@]1(=O)OC[C@H]2O[C@@H](n3ccc(=O)[nH]c3=O)[C@](C)(N)[C@@H]2O1)CC(=O)OC(C)C` [Compound 52B], for which the half-maximal effective concentration (EC50) was over 10 µM.

Take `C#C[C@]1(C)[C@@H]2O[P@](=O)(OC[C@H](CC(=O)OC(C)C)OC(C)=O)OC[C@H]2O[C@H]1n1ccc(=O)[nH]c1=O` [Compound 55B]: the concentration for a half-maximal effect (EC50) was over 10 µM.

Take `CC(C)OC(=O)[C@@H](C)CCO[P@@]1(=O)OC[C@H]2O[C@@H](n3cc(F)c4c(N)ncnc43)[C@](C)(Cl)[C@@H]2O1` [Compound 82A]: the concentration giving a half-maximal response (EC50) is over 10 µM.

For `C#C[C@]1(C)[C@@H]2O[P@@](=O)(OCCC(C)C(=O)OC3CCCCC3)OC[C@H]2O[C@H]1n1ccc(=O)[nH]c1=O` (stereo partly shown) [Compound 77A], the 50% effective concentration (EC50) lay within 1 to 10 µM.

For `C#C[C@@]1(O)[C@@H]2O[P@@](=O)(OCCC(C(=O)OC(C)C)C(=O)OC(C)C)OC[C@H]2O[C@H]1n1ccc(=O)[nH]c1=O` [Compound 59A], the concentration giving a half-maximal response (EC50) fell in the range of 0.25 to 1 µM.

Turning to `C#C[C@]1(C)[C@@H]2O[P@](=O)(OCC(C)(C)CC(=O)OC(C)C)OC[C@H]2O[C@H]1n1ccc(=O)[nH]c1=O` [Compound 18B], the 50% effective concentration (EC50) is over 10 µM.

Turning to `C#C[C@]1(C)[C@@H]2O[P@@](=O)(OCC[C@H](C)C(=O)OC(C)C)OC[C@H]2O[C@H]1n1cnc2c(N)ncnc21` [Compound 72A], the EC50 was over 10 µM.

On to `CC(C)OC(=O)C(C)CCOP1(=O)OC[C@H]2O[C@@H](n3cnc4c(N)ncnc43)[C@](C)(Cl)[C@@H]2O1` (stereo partly shown) [Compound 35A], for which the 50% effective concentration (EC50) is at most 0.25 µM.

Turning to `C#C[C@]1(C)[C@@H]2O[P@@](=O)(OCCC(CC)C(=O)OC(C)C)OC[C@H]2O[C@H]1n1ccc(=O)[nH]c1=O` (stereo partly shown) [Compound 31A], the EC50 is 0.25 to 1 µM.

As for `COC(=O)N[C@@H](CCO[P@@]1(=O)OC[C@H]2O[C@@H](n3ccc(=O)[nH]c3=O)[C@](C)(N)[C@@H]2O1)C(=O)OC(C)C` [Compound 42A], the EC50 is over 10 µM.

Take `CC(=O)O[C@H](C(=O)OC(C)C)[C@@H](CO[P@@]1(=O)OC[C@H]2O[C@@H](n3ccc(=O)[nH]c3=O)[C@](C)(N)[C@@H]2O1)OC(C)=O` [Compound 53A]: the concentration giving a half-maximal response (EC50) is over 10 µM.

Consider `C#C[C@]1(C)[C@@H]2O[P@@](=O)(OC[C@H](CC(=O)OC(C)C)OC(C)=O)OC[C@H]2O[C@H]1n1ccc(=O)[nH]c1=O` [Compound 55A], for which the concentration giving a half-maximal response (EC50) was over 10 µM.

In the case of `CCC(CCO[P@]1(=O)OC[C@H]2O[C@@H](n3ccc(=O)[nH]c3=O)[C@](C)(N)[C@@H]2O1)C(=O)OC1CCCC1` (stereo partly shown) [Compound 25B], the half-maximal effective concentration (EC50) is over 10 µM.

As for `CC(=O)O[C@H](CO[P@@]1(=O)OC[C@H]2O[C@@H](n3ccc(=O)[nH]c3=O)[C@](C)(N)[C@@H]2O1)CC(=O)OC(C)C` [Compound 52A], the EC50 is over 10 µM.

Take `CC(C)OC(=O)[C@@H](C)CCO[P@@]1(=O)OC[C@H]2O[C@@H](n3ccc4c(N)ncnc43)[C@](C)(Cl)[C@@H]2O1` [Compound 80A]: the 50% effective concentration (EC50) was over 10 µM.

Turning to `CC(C)OC(=O)[C@@H](C)CCO[P@]1(=O)OC[C@H]2O[C@@H](n3ccc4c(N)ncnc43)[C@](C)(Cl)[C@@H]2O1` [Compound 80B], the half-maximal effective concentration (EC50) was in the range of 1 to 10 µM.

As to `CC(C)OC(=O)[C@H](C)CCO[P@]1(=O)OC[C@H]2O[C@@H](n3cc(F)c4c(N)ncnc43)[C@](C)(Cl)[C@@H]2O1` [Compound 81B], the concentration giving a half-maximal response (EC50) was over 10 µM.

On to `CC(C)OC(=O)[C@H](C)CCO[P@@]1(=O)OC[C@H]2O[C@@H](n3cc(F)c4c(N)ncnc43)[C@](C)(Cl)[C@@H]2O1` [Compound 81A], for which the EC50 is over 10 µM.
